Laboratory results taken from patent publication US11603373B2, “TDO2 and IDO1 inhibitors” (Genentech, Inc., priority 2017, dated 2023).
pEC50: −log10 of the molar value.

Key:
[1] = biological target: T1, IDO1 (A172+IFNg cells, high IDO expressing cells) (Homo sapiens, UniProt P14902); assay: NFK GreenScreen cell assay, inhibition of IDO in A172+IFNg cells; assay type: cell-based; settings: read-out: IDO cell Fluor EC50
T1 construct: A172+IFNg cells (high IDO expressing cells); endogenous in cells; host or cells: A172 cells induced with 100 ng/ml IFNγ
Source text: (§1) Cells are counted on a Vi-Cell (Beckman Coulter). […] The final DMSO concentration is 0.5%.

[2] = biological target: T2, TDO2 (SW48 cells, high TDO expressing cells) (Homo sapiens, UniProt P48775); assay: NFK GreenScreen cell assay, inhibition of TDO in SW48 cells; assay type: cell-based; settings: read-out: TDO2 Cell Fluor EC50
T2 construct: SW48 cells (high TDO expressing cells); endogenous in cells; host or cells: SW48 cells
Source text: as §1

T2 sequence (P48775 whole entry): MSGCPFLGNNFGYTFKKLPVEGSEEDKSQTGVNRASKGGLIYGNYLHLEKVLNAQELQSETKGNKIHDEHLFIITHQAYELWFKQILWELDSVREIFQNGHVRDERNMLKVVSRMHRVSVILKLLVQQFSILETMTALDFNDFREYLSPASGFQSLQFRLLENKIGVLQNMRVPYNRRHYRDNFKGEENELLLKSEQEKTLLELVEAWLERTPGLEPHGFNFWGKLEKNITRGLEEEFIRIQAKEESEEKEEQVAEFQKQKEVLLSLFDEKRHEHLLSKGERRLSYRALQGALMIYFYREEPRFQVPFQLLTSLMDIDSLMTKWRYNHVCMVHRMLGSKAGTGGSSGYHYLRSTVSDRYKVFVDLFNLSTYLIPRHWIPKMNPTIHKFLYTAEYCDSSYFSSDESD
T1 sequence (P14902 whole entry): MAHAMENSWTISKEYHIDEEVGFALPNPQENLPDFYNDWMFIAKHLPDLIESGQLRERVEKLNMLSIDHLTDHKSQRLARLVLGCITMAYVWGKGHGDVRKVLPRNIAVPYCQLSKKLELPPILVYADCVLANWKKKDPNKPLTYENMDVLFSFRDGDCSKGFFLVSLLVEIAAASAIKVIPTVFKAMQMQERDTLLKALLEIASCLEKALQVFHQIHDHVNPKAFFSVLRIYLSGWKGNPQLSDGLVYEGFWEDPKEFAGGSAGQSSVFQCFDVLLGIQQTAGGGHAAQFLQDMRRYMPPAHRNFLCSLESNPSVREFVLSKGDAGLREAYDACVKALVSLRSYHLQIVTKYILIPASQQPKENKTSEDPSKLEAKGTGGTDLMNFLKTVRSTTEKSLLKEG

pEC50 [1] | pEC50 [2] | SMILES
6.82 | 6.85 | CS(=O)(=O)N1CC2CCC(C1)C21CC(C2c3ccccc3-c3cncn32)C1O (single isomer, unassigned) [compound 70, 3′(5H-imidazo[5,1-a]isoindol-5-yl)-3-(methylsulfonyl)-3-azaspiro[bicyclo[3.2.1]octane-8,1′-cyclobutan]-2′-ol]
5.60 | 5.49 | O=S(=O)(C1COC1)N1CCC2(CC1)C[C@H](C1c3ccccc3-c3cncn31)[C@@H]2O (stereo in doubt) [Example 23b, (2R,3S)-2-((5S)5H-imidazo[1,5-b]isoindol-5-yl)-7-(oxetan-3-ylsulfonyl)-7-azaspiro[3.5]nonan-3-ol]
6.04 | 5.92 | CC(C)(C)OC(=O)N1[C@@H]2CC[C@H]1C[C@]1(C[C@H]([C@@H]3c4ccccc4-c4cncn43)[C@@H]1O)C2 [Example 12a, tert-butyl (1R,2′S,3r,3′R,5S)-2′-hydroxy-3′-((R)-5H-imidazo[5,1-a]isoindol-5-yl)-8-azaspiro[bicyclo[3.2.]octane-3,1′-cyclobutane]-8-carboxylate]
6.82 | 6.74 | N#CCS(=O)(=O)N1CCC2(CC1)CC(C1c3ccccc3-c3cncn31)C2O (stereo not drawn) [Example 21a, 2-[[3-hydroxy-2-(5H-imidazo[,5-b]isoindol-5-yl)-7-azaspiro[3.5]nonan-7-yl]sulfonyl]acetonitrile]
7.12 | 7.00 | N#CCS(=O)(=O)N1CCC2(CC1)C[C@@H]([C@H]1c3ccccc3-c3cncn31)[C@H]2O [Example 21b, (2S,3R)-2-[[3-hydroxy-2-((5S)-5H-imidazo[1,5-b]isoindol-5-yl)-7-azaspiro[3.5]nonan-7-yl]sulfonyl]acetonitrile]
5.32 | 5.23 | N#CCS(=O)(=O)N1CCC2(CC1)C[C@H]([C@@H]1c3ccccc3-c3cncn31)[C@@H]2O [Example 21c, (2R,3S)-2-[[3-hydroxy-2-((5R)-5H-imidazo[1,5-b]isoindol-5-yl)-7-azaspiro[3.5]nonan-7-yl]sulfonyl]acetonitrile]
5.85 | 6.36 | CC(C)(C)OC(=O)N1CC2CCC(C1)C21C[C@@H]([C@@H]2c3ccccc3-c3cncn32)[C@H]1O (stereo partly drawn) [Example 22d, tert-butyl (2′R,3′S)-2′-hydroxy-3′-((R)-5H-imidazo[5,1-a]isoindol-5-yl)-3-azaspiro[bicyclo[3.2.1]octane-8,1′-cyclobutane]-3-carboxylate]
5.07 | 4.77 | CC(C)(C)OC(=O)N1CC2CCC(C1)C21C[C@@H]([C@@H]2c3ccccc3-c3cncn32)[C@@H]1O (stereo partly drawn) [Example 22e, tert-butyl (2′S,3′S)-2′-hydroxy-3′-((R)-5H-imidazo[5,1-a]isoindol-5-yl)-3-azaspiro[bicyclo[3.2.1]octane-8,1′-cyclobutane]-3-carboxylate]
7.04 | 5.85 | CC(C)(C)OC(=O)N1CC2CCC(C1)C21C[C@H]([C@H]2c3ccccc3-c3cncn32)[C@H]1O (stereo partly drawn) [Example 22f, tert-butyl (2′R,3′R)-2′-hydroxy-3′-((S)-5H-imidazo[5,1-a]isoindol-5-yl)-3-azaspiro[bicyclo[3.2.1]octane-8,1′-cyclobutane]-3-carboxylate]
7.39 | 6.80 | CC(C)(C)OC(=O)N1CC2CCC(C1)C21C[C@H]([C@@H]2c3ccccc3-c3cncn32)[C@H]1O (stereo partly drawn) [Example 22g, tert-butyl (2′R,3′R)-2′-hydroxy-3′-((R)-5H-imidazo[5,1-a]isoindol-5-yl)-3-azaspiro[bicyclo[3.2.1]octane-8,1-cyclobutane]-3-carboxylate]
5.55 | 5.40 | CC(C)(C)OC(=O)N1CC2CCC(C1)C21C[C@@H]([C@H]2c3ccccc3-c3cncn32)[C@@H]1O (stereo partly drawn) [Example 22h, tert-butyl (2′S,3′S)-2′-hydroxy-3′-((S)-5H-imidazo[5,1-a]isoindol-5-yl)-3-azaspiro[bicyclo[3.2.1]octane-8,1′-cyclobutane]-3-carboxylate]
6.82 | 6.48 | O=S(=O)(C1COC1)N1CCC2(CC1)CC(C1c3ccccc3-c3cncn31)C2O (stereo not drawn) [Example 23a, 2-(5H-imidazo[1,5-b]isoindol-5-yl)-7-(oxetan-3-ylsulfonyl)-7-azaspiro[3.5]nonan-3-ol]
7.30 | 7.05 | O=S(=O)(C1COC1)N1CCC2(CC1)C[C@@H]([C@H]1c3ccccc3-c3cncn31)[C@H]2O [Example 23c, (2S,3R)-2-[(5S)-5H-imidazo[1,5-b]isoindol-5-yl]-7-(oxetan-3-ylsulfonyl)-7-azaspiro[3.5]nonan-3-ol]
5.74 | 5.96 | CC(C)(C)OC(=O)N[C@H]1CC[C@]2(CC1)C[C@H]([C@H]1c3ccccc3-c3cncn31)[C@@H]2O [Example 24g, tert-butyl ((1S,2R,4r,7S)-1-hydroxy-2-((S)-5H-imidazo[5,1-a]isoindol-5-yl)spiro[3.5]nonan-7-yl)carbamate]
5.30 | 4.85 | CC(C)(C)OC(=O)N[C@H]1CC[C@@]2(CC1)C[C@H](C1c3ccccc3-c3cncn31)[C@H]2O (stereo partly drawn) [Example 24k, tert-butyl ((1S,2S,4s,7R)-1-hydroxy-2-((S)-5H-imidazo[5,1-a]isoindol-5-yl)spiro[3.5]nonan-7-yl)carbamate]
6.34 | 6.64 | CS(=O)(=O)N1CC2(CC(C3c4ccccc4-c4cncn43)C2O)C1 (stereo not drawn) [compound 5, 6-(5H-imidazo[1,5-b]isoindol-5-yl)-2-methylsulfonyl-2-azaspiro[3.3]heptan-7-ol]
6.96 | 6.66 | Cn1cc(S(=O)(=O)N2CCC3(CC2)CC(C2c4ccccc4-c4cncn42)C3O)cn1 (stereo not drawn) [compound 26, 2-(5H-imidazo[1,5-b]isoindol-5-yl)-7-(1-methylpyrazol-4-yl)sulfonyl-7-azaspiro[3.5]nonan-3-ol]
7.52 | 6.85 | Cc1nn(C)c(C)c1S(=O)(=O)N1CCC2(CC1)CC(C1c3ccccc3-c3cncn31)C2O (stereo not drawn) [compound 27, 2-(5H-imidazo[1,5-b]isoindol-5-yl)-7-(1,3,5-trimethylpyrazol-4-yl)sulfonyl-7-azaspiro[3.5]nonan-3-ol]
7.23 | 6.62 | CC(C)S(=O)(=O)N1CCC2(CC1)C[C@@H]([C@H]1c3ccccc3-c3cncn31)[C@H]2O [compound 29, 2-(5H-imidazo[1,5-b]isoindol-5-yl)-7-isopropylsulfonyl-7-azaspiro[3.5]nonan-3-ol]
6.49 | 6.31 | Cc1nc(S(=O)(=O)N2CCC3(CC2)C[C@@H]([C@H]2c4ccccc4-c4cncn42)[C@H]3O)cn1C [compound 30]
6.82 | 5.66 | Cc1noc(C)c1S(=O)(=O)N1CCC2(CC1)C[C@@H]([C@H]1c3ccccc3-c3cncn31)[C@H]2O [compound 31]
7.31 | 6.52 | Cc1ccncc1S(=O)(=O)N1CCC2(CC1)C[C@@H]([C@H]1c3ccccc3-c3cncn31)[C@H]2O [compound 32, (1R,2S)-2-((S)-5H-imidazo[5,1-a]isoindol-5-yl)-7-((4-methylpyridin-3-yl)sulfonyl)-7-azaspiro[3.5]nonan-1-ol]
6.31 | 6.08 | O=C(CCc1cccnc1)N1CCC2(CC1)CC(C1c3ccccc3-c3cncn31)C2O (stereo not drawn) [compound 33, 1-[3-hydroxy-2-(5H-imidazo[1,5-b]isoindol-5-yl)-7-azaspiro[3.5]nonan-7-yl]-3-(3-pyridyl)propan-1-one]
7.49 | 6.32 | CC(=O)N(C)c1ccc(S(=O)(=O)N2CCC3(CC2)C[C@@H]([C@H]2c4ccccc4-c4cncn42)[C@H]3O)cc1 [compound 34, N-[4-[[3-hydroxy-2-(5H-imidazo[1,5-b]isoindol-5-yl)-7-azaspiro[3.5]nonan-7-yl]sulfonyl]phenyl]-N-methyl-acetamide]
6.85 | 6.34 | CC(=O)N1CCC(S(=O)(=O)N2CCC3(CC2)CC(C2c4ccccc4-c4cncn42)C3O)CC1 (stereo not drawn) [compound 35, 1-[4-[[3-hydroxy-2-(5H-imidazo[1,5-b]isoindol-5-yl)-7-azaspiro[3.5]nonan-7-yl]sulfonyl]-1-piperidyl]ethanone]
7.46 | 6.82 | O=S(=O)(C1CCC1)N1CCC2(CC1)C[C@@H]([C@H]1c3ccccc3-c3cncn31)[C@H]2O [compound 36, 7-cyclobutylsulfonyl-2-(5H-imidazo[1,5-b]isoindol-5-yl)-7-azaspiro[3.5]nonan-3-ol]
6.64 | 5.96 | CN1C(=O)Cc2cc(S(=O)(=O)N3CCC4(CC3)CC(C3c5ccccc5-c5cncn53)C4O)ccc21 (stereo not drawn) [compound 37, 5-[[3-hydroxy-2-(5H-imidazo[1,5-b]isoindol-5-yl)-7-azaspiro[3.5]nonan-7-yl]sulfonyl]-1-methyl-indolin-2-one]
6.20 | 5.64 | O=C(c1cnn2c1OCCC2)N1CCC2(CC1)CC(C1c3ccccc3-c3cncn31)C2O (stereo not drawn) [compound 38, 6,7-dihydro-5H-pyrazolo[5,1-b][1,3]oxazin-3-yl-[3-hydroxy-2-(5H-imidazo[1,5-b]isoindol-5-yl)-7-azaspiro[3.5]nonan-7-yl]methanone]
5.48 | 5.41 | O=C(CN1CCCCC1=O)N1CCC2(CC1)CC(C1c3ccccc3-c3cncn31)C2O (stereo not drawn) [compound 39, 1-[2-[3-hydroxy-2-(5H-imidazo[1,5-b]isoindol-5-yl)-7-azaspiro[3.5]nonan-7-yl]-2-oxo-ethyl]piperidin-2-one]
5.15 | 5.04 | CN1CCC(C(=O)N2CCC3(CC2)CC(C2c4ccccc4-c4cncn42)C3O)CC1=O (stereo not drawn) [compound 40, 4-[3-hydroxy-2-(5H-imidazo[1,5-b]isoindol-5-yl)-7-azaspiro[3.5]nonane-7-carbonyl]-1-methyl-piperidin-2-one]
